Test results: patent publication EP4050002A1, “ANTI-PROLIFERATIVE AGENTS” (First Health Pharmaceuticals B.V., priority 2021, dated 2022)

How the values were obtained:
MDAMB231 cell line = experiment: Cytotoxicity, cell count method; format: cell-based, human; conditions: Homo sapiens, MDA-MB-231, MDAMB231, 72 hours of incubation
Experimental: (§1) The anti-tumor activity of the compounds of the present invention was evaluated as the effect on the proliferation and survival of tumor cells by counting the number of living cells in presence or absence of the compounds ("cell count method"), and as the effect on the viability and metabolic activity of the cells, by using particular substrates that are converted by cellular enzymes into coloured or luminescent products, proportionally with metabolic activity and state of the cell, such as the MTS tetrazolium compound ("MTS method") or luciferin ("ATP-based method") respectively.
Cells were seeded at 3 to 5 x 10^4 cells/well density depending on cell lines and maintained at 37°C in 5% CO2. After 24 hours cells were treated with ascending concentrations of the investigational compounds and the reference (5-fluoro-Uracyl) in a range from 0 to 100 µM. Compounds were dissolved in DMSO which final concentration in each well was 0.5% v:v. After 72 h of incubation with compounds, the cells were detached with trypsin and re-suspended in 1 ml of complete medium; the cell number was evaluated using a Z2 Coulter Counter ("cell count method") (Attallah and Johnson, A simple highly sensitive methods for the determination of cell viability using an electronic particle analyzer, Coulter counter J. Immunol. Methods. 1981, 41, 155; Leonardi et al., Activated kinase screening identifies the IKBKE oncogene as a positive regulator of autophagy. Autophagy, 2019, 15, 312). Alternatively, after the 72 hours of incubation with compounds, the MTS solution (CellTiter 96® AQueous One Solution Cell Proliferation Assay) is added to each well and absorbance at 490 nm wavelength is read after 2 hours of incubation ("MTS method"). Results in Tables 8-13, 17, 18 were obtained with the cell count method. Results in Tables 14-15 were obtained with the MTS method. Results in Table 16 were obtained with ATP-based method.

H9 = experiment: Cytotoxicity, cell viability; conditions: Homo sapiens; H9, 72 hours of incubation, ATP-based method
Experimental: as §1
Cells were seeded at 3 to 5 x 10^4 cells/well density depending on cell lines and maintained at 37°C in 5% CO2. After 24 hours cells were treated with ascending concentrations of the investigational compounds and the reference (5-fluoro-Uracyl) in a range from 0 to 100 µM. […] After 72 h of incubation with compounds, the cells were detached with trypsin and re-suspended in 1 ml of complete medium; the cell number was evaluated using a Z2 Coulter Counter ("cell count method") (Attallah and Johnson, A simple highly sensitive methods for the determination of cell viability using an electronic particle analyzer, Coulter counter J. Immunol. Methods. 1981, 41, 155; Leonardi et al., Activated kinase screening identifies the IKBKE oncogene as a positive regulator of autophagy. Autophagy, 2019, 15, 312). […]

Plasma stability = format: in vitro ADME; conditions: Human plasma
Experimental: Plasma previously separated from whole blood in EDTA-treated tubes and frozen; blood samples obtained from healthy volunteers, Sprague Dawley rats and CD1 mice, was thawed at room temperature and centrifuged at 1400x RCF 4°C, for 15 minutes. Approximately 90% of the clear supernatant fraction was transferred to a separate tube and was used for the assay.
Stocks (1 mM and 25 µM) of test compound were prepared in acetonitrile:water (50:50 v/v). Plasma samples were heat inactivated at 54°C. 3 µl of 25 µM test compound were added to 72 µl of heat inactivated plasma. A 50 µL aliquot of the mixture was taken and crashed with 200 µl of acetonitrile containing Telmisartan 100 ng/ml as internal standard and was further processed along with other time points: 10, 30 60 and 120 minutes.
Final working stock of 1 µM was prepared by diluting 12 µl of 25 µM stock in 288 µl of plasma. The obtained solution (300 µl) of plasma containing the test compound was incubated for […] at 37°C in shaker water bath with gentle shaking. 50 µl aliquot of sample at 10, 30, 60 and 120 min was precipitated immediately with 200 µl of acetonitrile containing internal standard and centrifuged at 4000x RCF, 4°C for 20 minutes. 150 µl of supernatant was diluted with 150 µl of water and analyzed by LC-MS/MS.
The % remaining of the test substance was calculated as: (Peak Area ratio at time (min))/(Peak Area Ratio at 0 min) ^∗ 100
The API400 MS and Agilent 1260 Infinity LC were used. Mobile Phase included 10mM Ammonium acetate with 0.1% formic acid in MilliQ water, and Methanol. The column was Phenomenex, KINETIC EVO C18 100A 5u 50^∗4.6 mm, 10 µl injection volume.

[1] = Systemic and organ toxicity; format: in vivo, mice
Experimental: […] For blood withdrawal, mice were anesthetized using gaseous anesthesia and 0.2 to 0.3 ml of blood samples were collected in Li-Heparin containing tubes at the time points above indicated, stored on ice, centrifuged within 15 minutes to separate plasma at 1540 ref (5000 rpm) at 4°C for 10 minutes; plasma was separated and transferred to new tubes.
At study closure, animals were sacrificed and tumor and tissues removed for further studies of distribution and morphology. Mice from the efficacy study were anesthetized using gaseous anesthesia and blood samples collected in Li-Heparin containing tubes by intracardiac puncture, stored on ice, centrifuged within 15 minutes to separate plasma at 1540 ref (5000 rpm), at 4°C for 10 minutes; plasma was separated and transferred to new tubes. After blood collection, tissues for bio-analyses were separated, washed in PBS, dried and frozen at -80±10°C until homogenization.
Tissues for histological analyses were washed in PBS and paraffin embedded soon after separation. Dehydration and Haematoxylin and Eosin (H&E) staining was performed on 5 µm thick sections followed by microscopic examination with Nikon Ni-e microscope (Nikon Instruments, Calenzano, Italy).

CCCCc1cn(-c2ccc(-c3nnc(-c4ccccc4C(F)(F)F)o3)cc2)nn1 [Compound 5]
IC50 (MDAMB231 cell line): 0.58 µM
IC50 (H9): 50 µM
% Remaining ± SD (Plasma stability; 0 minutes): 100.0 ± 3.9%
% Remaining ± SD (Plasma stability; 10 minutes): 107.1 ± 7.7%
% Remaining ± SD (Plasma stability; 30 minutes): 87.2 ± 10.3%
% Remaining ± SD (Plasma stability; 60 minutes): 88.3 ± 7.0%
% Remaining ± SD (Plasma stability; 120 minutes): 88.2 ± 8.2%
treatment related morphological changes in brain, liver, lung, spleen and kidney ([1]; 6 weeks of repeated treatment, I.P. 45mg/Kg every 48 hours): No treatment related morphological changes
systemic toxicities or altered behavior ([1]; I.P. 10 mg/kg single administration, mice observed for 24 hours): no toxicities
systemic toxicities or altered behavior ([1]; I.P. 45 mg/kg double administration, mice observed for 48 hours): no toxicities
systemic toxicities or altered behavior ([1]; I.P. 45 mg/kg every 48 hours, 6 weeks, including 1 week follow up): no toxicities
systemic toxicities or altered behavior ([1]; I.P. 45 mg/kg single administration, mice observed for 24 hours): no toxicities
systemic toxicities or altered behavior ([1]; I.T. 0.08 mg/kg single administration, mice observed for 24 hours): no toxicities
systemic toxicities or altered behavior ([1]; I.V. 1 mg/kg single administration, mice observed for 24 hours): no toxicities
systemic toxicities or altered behavior ([1]; P.O. 45 mg/kg single administration, mice observed for 24 hours): no toxicities
